Reference: PMC6268586, “Effect of Wine and Vinegar Processing of Rhizoma Corydalis on the Tissue Distribution of Tetrahydropalmatine, Protopine and Dehydrocorydaline in Rats” (Molecules, 2012)
Where two headings read alike, the source gives them in different places.

Assay: Tissue distribution of THP, DHC and protopine in rat tissues after gastric gavage administration (HPLC-UV, non-compartmental analysis)
Format: in vivo, Wistar male rats
Details: for AUC(0-t) / Cmax / MRT / Tmax: male, Wistar, po, 6.45 mg/kg; for AUC(0-t): read-out: AUC0–24 h of THP; for Cmax: read-out: Cmax of THP; for MRT: read-out: MRT of THP; for Tmax: read-out: Tmax of THP
Description: The experimental protocol was approved by the University's Animal Ethics Committee. […] Rats had unlimited access to water. Standard food was given until 12 h before the experiments. Rhizoma Corydalis was processed according to Pharmacopoeia of Chinese Medicine and National Guideline of Traditional Chinese Medicinal Plants Processing. Briefly, fresh Rhizoma Corydalis was boiled in water till the pith turn light brown color. Cooked rhizome was sliced into pieces (4 mm, diameter) and dried at 25 °C. Dried slices were mixed with edible vinegar (100:20, rhizome/vinegar, w/v) or yellow wine (100:10, rhizome/wine, w/v) and the slices allowed to completely absorb the vinegar or wine. The soaked slices were then stir-fried in a metallic pan over a low flame till they were completely dry. The processed Rhizoma Corydalis was added with 70% ethanol (1:30 w/v) and sonicated for 1 h at room temperature. The extract was then concentrated to remove the ethanol residue and stored at 4 °C for further use. […] The ethanol extract of the unprocessed Rhizoma Corydalis and THP, DHC and protopine pure compound were used as the controls. Three hundred and sixty healthy rats were used in total and are divided into six groups (Group 1-6, sixty rats per group). Drugs were administrated by gastric gavage method. In order to keep the dose of THP, DHC and protopine constant in each group, the amount of ethanol extract of Rhizoma Corydalis administrated was normalized based on the dose of protopine pure compound used. The dose of THP and DHC pure compound administrated was same with that in the ethanol extract of Rhizoma Corydalis. The details were listed below. […] Rats were administrated with the 70% ethanol extract of unprocessed Rhizoma Corydalis at a dose of 17.75 g extract/kg body weight. […] Rats received the extract of vinegar-processed Rhizoma Corydalis at a dose of 15 g extract/kg rat body weight. Group 3: Rats were administrated with the extract of wine processed Rhizoma Corydalis at a dose of 15.78 g extract/kg body weight. […] Rats received THP pure compound at a dose of 6.45 mg/kg body weight. Group 6: Rats were administrated 26.10 mg of DHC pure compound/kg body weight. […] Brian tissue was further dissected into six parts: cerebrum, cerebellum, diencephalons, brain stem, hippocampus and striatum. All the tissue samples were rinsed with ice-old saline and stored at -20 °C until extraction. Tissue samples were homogenized in three volumes of ice-cold biological saline and centrifuged for 10 min at 10,000 g and 4 °C. An aliquot of the supernatant (0.5 mL) was collected. Liquid-liquid extraction was used to extract THP, DHC and protopine. One hundred microliter of 1.0 μg/mL nuciferin (internal standard) was mixed with 0.5 mL aliquots of the supernatant. […] The supernatant was evaporated completely under the nitrogen stream in a 60 °C water bath. The residue was redissolved in 100 μL of methanol. A CoMetro HPLC system (CoMetro Technology Ltd, South […], NJ, USA) with 6000 PVW detector UV-VIS detector was used. […] Ltd., Liaoning, China). Other chromatographic conditions were: column temperature, 35 °C; mobile phase, acetonitrile-0.1% phosphoric acid (pH 3.0) (30:70 v/v); flow rate, 1 mL/min; wavelength, 280 nm. Pharmacokinetic parameters were estimated by non-compartmental analysis using Equiv Test/PK (Statistical Solutions Ltd., Saugus, MA, USA). The maximum concentration (Cmax) and the time to reach the maximum concentration (Tmax) were directly obtained from the observed value. All data were represented as mean ± SD. Comparison of values between groups was performed using one-way ANOVA followed by Tukey's test for comparisons among four groups.

AUC(0-t) (rat brainstem): 1490 ± 340 ng·h/mL | Cmax (rat brainstem): 370 ± 110 ng/mL | MRT (rat brainstem): 7.53 ± 0.26 h | Tmax (rat brainstem): 0.25 h | AUC(0-t) (rat cerebellum): 990 ± 220 ng·h/mL | Cmax (rat cerebellum): 150 ± 30 ng/mL | MRT (rat cerebellum): 9.2 ± 0.61 h | Tmax (rat cerebellum): 0.26 ± 0.02 h | AUC(0-t) (rat cerebrum): 860 ± 200 ng·h/mL | Cmax (rat cerebrum): 250 ± 72 ng/mL | MRT (rat cerebrum): 8 ± 0.25 h | Tmax (rat cerebrum): 0.26 ± 0.01 h | AUC(0-t) (rat diencephalons): 1670 ± 380 ng·h/mL | Cmax (rat diencephalons): 460 ± 130 ng/mL | MRT (rat diencephalons): 7.7 ± 0.28 h | Tmax (rat diencephalons): 0.27 ± 0.04 h | AUC(0-t) (rat heart): 1430 ± 320 ng·h/mL | Cmax (rat heart): 600 ± 180 ng/mL | MRT (rat heart): 4.83 ± 0.13 h | Tmax (rat heart): 0.25 h | AUC(0-t) (rat hippocampus): 1790 ± 400 ng·h/mL | Cmax (rat hippocampus): 470 ± 130 ng/mL | MRT (rat hippocampus): 7.04 ± 0.23 h | Tmax (rat hippocampus): 0.24 ± 0.05 h | AUC(0-t) (rat kidney): 6270 ± 1430 ng·h/mL | Cmax (rat kidney): 2050 ± 570 ng/mL | MRT (rat kidney): 4.37 ± 0.1 h | Tmax (rat kidney): 0.33 ± 0.09 h | AUC(0-t) (rat liver): 5570 ± 2600 ng·h/mL | Cmax (rat liver): 7840 ± 1740 ng/mL | MRT (rat liver): 3.99 ± 0.08 h | Tmax (rat liver): 0.21 ± 0.01 h | AUC(0-t) (rat lung): 5930 ± 1320 ng·h/mL | Cmax (rat lung): 1530 ± 450 ng/mL | MRT (rat lung): 5.34 ± 0.15 h | Tmax (rat lung): 0.26 ± 0.08 h | AUC(0-t) (rat spleen): 3270 ± 740 ng·h/mL | Cmax (rat spleen): 1540 ± 450 ng/mL | MRT (rat spleen): 4.34 ± 0.09 h | Tmax (rat spleen): 0.23 h | AUC(0-t) (rat striatum): 2470 ± 570 ng·h/mL | Cmax (rat striatum): 720 ± 210 ng/mL | MRT (rat striatum): 7.69 ± 0.26 h | Tmax (rat striatum): 0.21 ± 0.03 h | elimination of THP from the tissues (rat tissues): rarely found after 8 h | time after administration at which THP was detected in all the tissues examined (rat tissues): ≤ 5 min
Structure (SMILES): COc1cc2c(cc1OC)[C@@H]1Cc3ccc(OC)c(OC)c3CN1CC2 [THP, tetrahydropalmatine]
